Columns and labels:
[1] = test system: Bovine viral diarrhea (BVD) virus; assay: Anti-BVDV CPE inhibition assay in MDBK cells; details: for SI (selectivity index, ratio of CC50 and EC50): CC50/EC50, MDBK cells, BVD virus
[2] = test system: BVDV type 2 strain 1373; details: 5 mg/kg i.v. 2x daily; for Animals showing signs of dehydration / Samples virus isolation positive for BVDV in total / Adverse side effects on serial complete blood cell counts or serum chemistry panels / Period in which leukopenia (<5000 leukocytes/μL) was seen / Adverse drug reactions on daily clinical monitoring / Clinical scores compared to calves receiving diluent only: 10 days; for Buffy coat samples virus isolation positive: Days 6-10, 20 samples per group; for Samples virus isolation positive for BVDV in total: all sample types and time points; for Nasal swab samples virus isolation positive: by Day 12, 28 samples per group; for Adverse side effects on serial complete blood cell counts or serum chemistry panels / Period in which leukopenia (<5000 leukocytes/μL) was seen / Adverse drug reactions on daily clinical monitoring: calves; for Adverse drug reactions on daily clinical monitoring: Day 0 to Day 28; for Clinical scores compared to calves receiving diluent only: composite of dehydration, appearance, appetite, diarrhea
[3] = test system: classical swine fever virus (CSFV) strain Alfort 187; assay: microbe, parasite or virus in culture; format: cell-based; details: PK-15, in Sus scrofa, 48 h
[4] = Cytotoxicity in MDBK cells (no BVD virus added); details: bovine, MDBK cells (Madin-Darby bovine kidney), no virus added
[5] = test system: MDBK cells (Madin-Darby bovine kidney); assay: Cytotoxicity in MDBK cells (no BVD virus added); details: MDBK cells, no virus, 50% toxic effects
[6] = Bovine viral diarrhea virus isolates and strains, MDBK, in Bos taurus, 96 h

Compound: Cc1c(-c2nc3ccn(Cc4cc(-c5cc(F)ccc5F)no4)cc-3n2)cnn1C [CPD-7, 3-(2,5-difluorophenyl)-5-((2-(1,5-dimethyl-1H-pyrazol-4-yl)-5H-imidazo[4,5-c]pyridin-5-yl)methyl)isoxazole]
- EC50 [1, 6]: 53 ± 25 nM
- SI (selectivity index, ratio of CC50 and EC50) [1]: 4000
- Animals showing signs of dehydration [2]: None
- Buffy coat samples virus isolation positive [2]: 50%
- Samples virus isolation positive for BVDV in total [2]: 28 samples
- Nasal swab samples virus isolation positive [2]: 29%
- Adverse side effects on serial complete blood cell counts or serum chemistry panels [2]: No evidence of adverse side effects
- Period in which leukopenia (<5000 leukocytes/μL) was seen [2]: 6 to 12 days
- Adverse drug reactions on daily clinical monitoring [2]: No signs of adverse drug reactions were observed
- Clinical scores compared to calves receiving diluent only [2]: attenuated clinical scores
- EC50 [3]: 1300 ± 500 nM
- CC50 at 4 days [4]: 212 µM

Compound: Cc1ccc2nc(Cn3ccc4nc(-c5cn(C)nc5C)nc-4c3)sc2c1 [CPD-10, 2-((2-(1,3-dimethyl-1H-pyrazol-4-yl)-5H-imidazo[4,5-c]pyridin-5-yl)methyl)-6-methylbenzo[d]thiazole]
- EC50 [1, 6]: 80 ± 32 nM
- SI (selectivity index, ratio of CC50 and EC50) [1]: 2888
- Animals showing signs of dehydration [2]: None
- Buffy coat samples virus isolation positive [2]: 55%
- Samples virus isolation positive for BVDV in total [2]: 32 samples
- Nasal swab samples virus isolation positive [2]: 43%
- Adverse side effects on serial complete blood cell counts or serum chemistry panels [2]: No evidence of adverse side effects
- Period in which leukopenia (<5000 leukocytes/μL) was seen [2]: 6 to 8 days
- Adverse drug reactions on daily clinical monitoring [2]: No signs of adverse drug reactions were observed
- Clinical scores compared to calves receiving diluent only [2]: attenuated clinical scores
- EC50 [3]: 4300 ± 1900 nM
- CC50 at 4 days [4]: 231 µM

Compound: OCc1ccccc1-c1cc2ccn(Cn3nnc4ccccc43)cc-2n1 [Compound V, [2-(6-((1H-Benzotriazol)-1-yl)methyl-6H-pyrrolo[2,3-c]pyridin-2-yl)-phenyl]-methanol]
- EC50 ([1]; BVD virus approx. 100 TCID50, MDBK cells, four days, 50% inhibition of CPE): 81 ± 1 nM
- CC50 [5]: > 50 µM
